Target: T1, wild-type NALP1 (Homo sapiens, UniProt Q9C000)
T1 construct: to generate full-length NALP1 in frame with EGFP; expressed in transfected cells; host or cells: HeLa cells, transient transfection with the pEGFP-N3 based plasmid; S-100 extract used
T1 sequence (Q9C000 1-1473): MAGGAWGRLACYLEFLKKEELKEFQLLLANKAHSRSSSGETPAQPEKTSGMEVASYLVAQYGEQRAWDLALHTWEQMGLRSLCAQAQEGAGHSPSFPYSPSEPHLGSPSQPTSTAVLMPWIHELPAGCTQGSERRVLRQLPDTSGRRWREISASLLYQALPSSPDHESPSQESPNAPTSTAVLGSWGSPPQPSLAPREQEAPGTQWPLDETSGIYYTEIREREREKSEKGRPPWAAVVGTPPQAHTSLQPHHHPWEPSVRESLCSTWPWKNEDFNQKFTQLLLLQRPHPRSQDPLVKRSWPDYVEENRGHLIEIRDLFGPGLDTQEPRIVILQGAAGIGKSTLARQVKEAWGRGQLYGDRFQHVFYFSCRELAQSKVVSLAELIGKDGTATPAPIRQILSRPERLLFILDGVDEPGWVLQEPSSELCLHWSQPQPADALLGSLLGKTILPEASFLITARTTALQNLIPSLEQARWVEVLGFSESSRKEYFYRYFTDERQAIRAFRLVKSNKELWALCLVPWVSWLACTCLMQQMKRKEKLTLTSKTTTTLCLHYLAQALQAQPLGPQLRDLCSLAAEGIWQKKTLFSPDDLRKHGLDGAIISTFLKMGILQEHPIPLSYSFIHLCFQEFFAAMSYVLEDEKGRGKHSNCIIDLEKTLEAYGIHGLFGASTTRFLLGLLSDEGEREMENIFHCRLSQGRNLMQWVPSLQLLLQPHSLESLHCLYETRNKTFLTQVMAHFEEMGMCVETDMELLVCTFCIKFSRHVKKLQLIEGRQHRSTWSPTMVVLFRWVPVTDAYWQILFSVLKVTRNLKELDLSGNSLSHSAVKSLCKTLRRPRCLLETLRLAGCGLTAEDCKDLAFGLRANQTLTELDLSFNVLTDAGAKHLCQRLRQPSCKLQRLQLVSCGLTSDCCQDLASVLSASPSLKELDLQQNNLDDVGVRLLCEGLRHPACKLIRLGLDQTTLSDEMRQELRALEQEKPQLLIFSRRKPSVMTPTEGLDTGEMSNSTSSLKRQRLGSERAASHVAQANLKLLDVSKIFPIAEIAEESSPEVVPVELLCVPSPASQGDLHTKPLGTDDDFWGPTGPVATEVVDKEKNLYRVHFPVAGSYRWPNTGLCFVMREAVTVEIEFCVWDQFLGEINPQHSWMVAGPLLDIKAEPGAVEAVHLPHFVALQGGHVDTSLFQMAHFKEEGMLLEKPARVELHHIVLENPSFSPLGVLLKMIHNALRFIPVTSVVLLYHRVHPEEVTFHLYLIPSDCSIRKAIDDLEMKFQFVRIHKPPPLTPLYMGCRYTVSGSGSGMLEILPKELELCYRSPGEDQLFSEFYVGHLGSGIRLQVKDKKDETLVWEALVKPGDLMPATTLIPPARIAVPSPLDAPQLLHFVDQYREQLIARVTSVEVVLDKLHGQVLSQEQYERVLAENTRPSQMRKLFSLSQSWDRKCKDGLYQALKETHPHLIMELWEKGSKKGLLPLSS
Experiment: Fluorimetric DEVDase (caspase-3) assay in HeLa cell extracts expressing wild-type NALP1-EGFP
Assay type: biochemical
Details: 2 mM dATP, 2 mM MgCl2, 1 hour, Ac-DEVD-AMC substrate
Description: Cell extract preparation and fluorimetric assay of caspase activity. Preparation of cell extracts, dATP incubation and caspase-3 activities assays were performed as described by Liu et al. (1996). Briefly, HeLa cells were grown in DMEM, 10% FBS. Cells were plated in T175 flasks to 60% confluence. Control vector pEGFP or wild-type or NBS mutant NALP1-EGFP expression plasmids were transfected into HeLa cells using Lipofectamine Plus. Cells were collected in homogenization buffer (20 mM HEPES pH 7.5, 10 mM KCl, 1 mM sodium EDTA, […], 1 mM sodium EGTA, 0.1% CHAPS, 1 mM DTT, 0.1 mM PMSF and protease inhibitor cocktail tablets (Roche)), 24 hours after transfection. Cells were chilled on ice for 15 minutes and homogenized by douncing 30 times in a glass douncer. Samples were centrifuged at 1000×g for 10 minutes at 4° C. […] After 2 hours incubation, liberation of AMC (7-amino-4-methylcoumarin) from the substrate was monitored using excitation/emission wavelength pairs (λex/λem) of 380/460 nm using a SpectraFluor Plus instrument (Tecan). Triplicate samples were evaluated with or without specific inhibitors. […] Normalized data from multiple experiments were expressed as means±standard deviation. For each experiment, the expression of EGFP-tagged NALP1 proteins was analyzed by anti-GFP immunoblot and quantified by densitometry.

DEVDase activity, extracts with wild-type NALP1: significantly elevated
SMILES: Nc1ncnc2c1ncn2[C@H]1C[C@H](O)[C@@H](COP(=O)(O)OP(=O)(O)OP(=O)(O)O)O1 [dATP]

Reference: patent US20040248775A1, “Methods for screening inhibitors of apoptosis” (Wyeth, priority 2003, published 2004)
